How the values were obtained:
[1] = molecular target: T1, Epidermal Growth Factor Receptor (EGFR) Tyrosine Kinase (Homo sapiens, UniProt P00533); experiment: EGFR kinase multiplex FP/TR-RET library screen and follow-up titration; assay type: biochemical; conditions: two-fold dilution series
T1 construct: purchased PanVera, Madison Wis; P2628

[2] = Precipitation of poorly correlating compounds in the EGFR kinase assay; assay type: physicochemical; conditions: EGFR kinase assay conditions
[3] = molecular target: PTK labeled tracer F-ADE(pY)LIPQQS; experiment: FP direct binding, antibody titrated (10 nM to 9.8 pM) against 1 nM tracer

T1 sequence (P00533 25-1210, species assumed): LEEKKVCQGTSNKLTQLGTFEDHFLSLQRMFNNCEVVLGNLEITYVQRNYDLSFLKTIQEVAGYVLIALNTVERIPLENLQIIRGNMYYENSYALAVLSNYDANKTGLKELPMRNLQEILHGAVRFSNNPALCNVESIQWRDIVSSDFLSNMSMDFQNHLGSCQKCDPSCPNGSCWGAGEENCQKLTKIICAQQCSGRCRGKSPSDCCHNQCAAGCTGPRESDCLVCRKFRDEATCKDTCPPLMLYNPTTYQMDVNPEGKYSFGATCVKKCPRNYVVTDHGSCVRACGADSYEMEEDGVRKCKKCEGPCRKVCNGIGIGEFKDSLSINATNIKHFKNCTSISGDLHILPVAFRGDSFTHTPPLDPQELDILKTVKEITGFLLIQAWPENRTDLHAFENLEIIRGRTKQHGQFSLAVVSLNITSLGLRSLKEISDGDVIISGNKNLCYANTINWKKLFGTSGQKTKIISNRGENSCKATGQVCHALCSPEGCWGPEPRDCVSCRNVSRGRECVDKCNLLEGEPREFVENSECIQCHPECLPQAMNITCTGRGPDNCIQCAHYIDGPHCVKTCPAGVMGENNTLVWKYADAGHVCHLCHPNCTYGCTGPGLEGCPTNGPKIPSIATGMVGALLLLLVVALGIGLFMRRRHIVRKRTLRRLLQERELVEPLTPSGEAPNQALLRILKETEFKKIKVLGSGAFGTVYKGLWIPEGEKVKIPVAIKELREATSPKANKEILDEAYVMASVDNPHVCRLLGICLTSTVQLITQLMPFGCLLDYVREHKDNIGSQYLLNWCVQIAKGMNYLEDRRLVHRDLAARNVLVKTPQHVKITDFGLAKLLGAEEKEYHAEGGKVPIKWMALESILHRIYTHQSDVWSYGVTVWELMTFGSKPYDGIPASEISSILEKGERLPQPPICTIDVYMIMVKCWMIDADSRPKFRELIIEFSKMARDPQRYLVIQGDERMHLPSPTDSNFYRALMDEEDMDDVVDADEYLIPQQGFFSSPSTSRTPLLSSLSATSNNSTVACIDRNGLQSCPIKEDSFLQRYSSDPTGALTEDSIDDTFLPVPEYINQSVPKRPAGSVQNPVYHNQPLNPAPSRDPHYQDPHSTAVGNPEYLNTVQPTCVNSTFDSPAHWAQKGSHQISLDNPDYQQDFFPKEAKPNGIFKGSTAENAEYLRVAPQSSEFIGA

Row | Molecule | inhibitor on re-assay [1] | precipitation in assay [2] | also measured
1 | NC(=O)c1cc(N2CC2)c([N+](=O)[O-])cc1[N+](=O)[O-] [CB-1954, CB 1954] | neither was seen to be an inhibitor | – | –
2 | CC(C)[C@@]1(NC(=O)[C@@H]2C=C3c4cccc5[nH]cc(c45)C[C@H]3N(C)C2)O[C@@]2(O)[C@@H]3CCCN3C(=O)[C@H](Cc3ccccc3)N2C1=O [Ergocristine] | – | precipitate | –
3 | O=C1Nc2ccc(I)cc2/C1=C/c1cc(Br)c(O)c(Br)c1 [GW5074] | – | precipitate | –
4 | Oc1ccccc1O [Pyrocatechol] | neither was seen to be an inhibitor | – | –
5 | Tb-chelate labeled PY72 (anti-phosphotyrosine) IgG antibody | – | – | EC50 [3]: 1 nM

— US20050064485A1, “Multiplex binding and activity assays” (priority 2003, published 2005)
